Where two headings read alike, the source gives them in different places.

The IC50 is the concentration that inhibits the measured activity by half. By EC50 is commonly meant the concentration giving half of the maximal effect.

The target of one assay is T1, human DGKα (Homo sapiens, UniProt P23743).
T1 construct: TVMV protease cleavage site (C); Hexa-His (C); made in house; host or cells: Sf9 insect cells (baculovirus, Bac-to-Bac)
Description: DGKα LIPGLO assay (extruded liposome substrate), in vitro DGK inhibition. Type of assay: biochemical. Conditions: liposome (LIPGLO) assay; read-out: DGKa LIPGLO IC50.

The next assay addresses T2, human DGKζ (Homo sapiens, UniProt Q13574).
T2 construct: TVMV protease cleavage site (C); Hexa-His (C); made in house; host or cells: Sf9 insect cells (baculovirus, Bac-to-Bac)
The assay is described as follows: DGKζ LIPGLO assay (extruded liposome substrate), in vitro DGK inhibition. Type of assay: biochemical. The following applies: liposome (LIPGLO) assay; read-out: DGKz LIPGLO IC50.

The test system of a further assay is naïve human CD8 T cells. Description: Human CD8 T cells IFN-γ assay.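 Note: Naïve human CD8 T cells stimulated with plate-bound anti-CD3 and soluble anti-CD28, IFN-γ in supernatant quantified by AlphaLISA and converted to pg/mL.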 Format: cell-based. Conditions: normalized to 3 μM reference compound with anti-CD3 plus anti-CD28 as 100% activation, read-out: HuCD8 INFG Normalized EC50.
For another assay, the system named is Human venous whole blood. The assay is described as follows: Human whole blood IFN-γ assay.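 Note: blood from healthy donors exposed to compound for 1 h before stimulation with anti-CD3 and anti-CD28 at 1 µg/mL each, IFN-γ quantified in supernatant by AlphaLISA.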 Conditions: human whole blood, normalized to 3 μM reference compound with anti-CD3 plus anti-CD28 as 100% activation, read-out: INFg Whole Blood Normalized Agonist EC50. Type of assay: cell-based.

T1 sequence (P23743 with tags, fused parts or gaps): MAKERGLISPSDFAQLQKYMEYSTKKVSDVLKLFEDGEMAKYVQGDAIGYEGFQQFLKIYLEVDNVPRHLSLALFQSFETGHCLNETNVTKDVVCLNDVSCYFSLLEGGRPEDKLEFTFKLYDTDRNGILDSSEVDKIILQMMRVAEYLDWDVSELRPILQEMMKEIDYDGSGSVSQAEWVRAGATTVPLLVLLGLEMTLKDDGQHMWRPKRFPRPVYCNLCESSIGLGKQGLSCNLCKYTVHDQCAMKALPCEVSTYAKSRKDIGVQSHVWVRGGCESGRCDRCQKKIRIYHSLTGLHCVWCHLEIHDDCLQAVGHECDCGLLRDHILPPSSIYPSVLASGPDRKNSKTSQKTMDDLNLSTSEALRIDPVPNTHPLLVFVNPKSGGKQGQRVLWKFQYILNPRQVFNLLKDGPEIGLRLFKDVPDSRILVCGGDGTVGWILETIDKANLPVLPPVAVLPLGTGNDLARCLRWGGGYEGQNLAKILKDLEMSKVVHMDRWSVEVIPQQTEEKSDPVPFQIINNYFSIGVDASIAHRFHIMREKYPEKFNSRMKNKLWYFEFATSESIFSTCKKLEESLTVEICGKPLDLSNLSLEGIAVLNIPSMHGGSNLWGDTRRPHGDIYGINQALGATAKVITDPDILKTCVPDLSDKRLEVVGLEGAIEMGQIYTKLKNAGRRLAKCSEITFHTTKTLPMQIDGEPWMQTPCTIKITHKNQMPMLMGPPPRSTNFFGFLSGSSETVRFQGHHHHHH
T2 sequence (Q13574 with tags, fused parts or gaps isoform Q13574-4): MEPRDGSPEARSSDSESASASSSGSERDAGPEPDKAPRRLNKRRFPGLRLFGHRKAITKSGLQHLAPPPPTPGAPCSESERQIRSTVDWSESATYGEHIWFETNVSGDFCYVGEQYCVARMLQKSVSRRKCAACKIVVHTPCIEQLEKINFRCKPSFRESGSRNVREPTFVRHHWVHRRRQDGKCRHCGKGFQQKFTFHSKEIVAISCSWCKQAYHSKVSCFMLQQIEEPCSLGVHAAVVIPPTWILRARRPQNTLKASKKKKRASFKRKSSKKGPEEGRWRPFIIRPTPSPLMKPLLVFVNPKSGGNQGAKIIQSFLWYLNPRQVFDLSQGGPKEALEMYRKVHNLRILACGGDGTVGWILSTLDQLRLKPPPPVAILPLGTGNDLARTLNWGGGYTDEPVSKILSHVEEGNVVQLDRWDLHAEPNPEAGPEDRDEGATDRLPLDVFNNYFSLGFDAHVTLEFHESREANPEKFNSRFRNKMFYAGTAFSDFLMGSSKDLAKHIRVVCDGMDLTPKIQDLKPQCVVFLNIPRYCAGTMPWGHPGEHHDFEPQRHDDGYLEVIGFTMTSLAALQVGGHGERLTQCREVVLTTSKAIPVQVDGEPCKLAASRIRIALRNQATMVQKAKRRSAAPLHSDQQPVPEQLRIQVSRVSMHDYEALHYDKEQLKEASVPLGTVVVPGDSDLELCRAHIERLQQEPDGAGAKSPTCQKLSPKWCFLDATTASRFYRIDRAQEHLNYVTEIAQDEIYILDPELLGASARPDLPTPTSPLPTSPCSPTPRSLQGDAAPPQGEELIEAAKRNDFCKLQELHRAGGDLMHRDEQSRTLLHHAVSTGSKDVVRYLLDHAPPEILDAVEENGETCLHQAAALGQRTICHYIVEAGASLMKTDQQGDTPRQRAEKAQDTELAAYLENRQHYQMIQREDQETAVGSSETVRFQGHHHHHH
Description for Human venous whole blood: Human Whole Blood IFN-γ Assay
Human venous whole blood (22.5 μL per well), obtained from healthy donors, was pre-treated with compounds for one hour at 37° C. in a humidified 95% air/5% CO2 incubator. The blood was stimulated with 2.5 μL anti-human CD3 and anti-CD28 mAb at a final concentration of 1 μg/mL each for 24 hours at 37° C. IFN-γ in the supernatants was measured using AlphLISA kit (Cat # AL217).

As for `C[C@@H]1CN(c2cc(=O)n(C)c3ccc(C#N)nc23)[C@@H](C)CN1C(c1ccc(Cl)cc1)c1ccc(F)cn1` (single isomer, unassigned) [Example 191], the IC50 at human DGKα was 200 nM; at human DGKζ, 590 nM. Also, the EC50 in the assay on naïve human CD8 T cells (Homo sapiens, T-cell, 20 h) was 31 nM; in the assay on Human venous whole blood (Homo sapiens, 24 h), 430 nM.
On to `C[C@@H]1CN(c2cc(=O)n(C)c3ccc(C#N)nc23)[C@@H](C)CN1C(c1ccc(Cl)cc1)c1ccc(F)cn1` (single isomer, unassigned) [Example 192], for which the IC50 stood at 120 nM on human DGKα and 1500 nM at human DGKζ. Further, the EC50 in the assay on naïve human CD8 T cells is 56 nM; in the assay on Human venous whole blood, 600 nM.
As for `C[C@@H]1CN(c2cc(=O)n(C)c3ccc(C#N)nc23)[C@@H](C)CN1C(c1ccc(F)cc1)c1ccc(F)cn1` (single isomer, unassigned) [Example 194], the IC50 at human DGKα came to 200 nM; at human DGKζ, 680 nM. Besides, the EC50 in the assay with naïve human CD8 T cells (Homo sapiens, T-cell, 20 h) was found to be 40 nM; in the assay with Human venous whole blood (Homo sapiens, 24 h), 980 nM.
With `C[C@@H]1CN(c2cc(=O)n(C)c3ccc(C#N)nc23)[C@@H](C)CN1C(c1ccc(Cl)cc1)c1cccc(F)n1` (single isomer, unassigned) [Example 195], the IC50 on human DGKα and at human DGKζ was 1100 nM throughout. In addition, the EC50 came out at 9.9 nM with naïve human CD8 T cells and 1800 nM in the assay with Human venous whole blood (Homo sapiens, 24 h).
As for `C[C@@H]1CN(c2cc(=O)n(C)c3ccc(C#N)nc23)[C@@H](C)CN1C(c1ccc(Cl)cc1)c1cccc(F)n1` (single isomer, unassigned) [Example 196], the IC50 at human DGKα came out at 1300 nM; on human DGKζ it was 3000 nM. For the same compound, the results for the EC50 with naïve human CD8 T cells and with Human venous whole blood were 47 nM and 1400 nM, respectively.
Consider `C[C@@H]1CN(c2cc(=O)n(C)c3ccc(C#N)nc23)[C@@H](C)CN1C(c1ccc(F)cc1)c1ccccn1` (single isomer, unassigned) [Example 198], for which the IC50 on human DGKα is 240 nM; at human DGKζ, 870 nM. The EC50 is 21 nM in the assay with naïve human CD8 T cells and 590 nM with Human venous whole blood.
As to `Cc1ccc(C(c2ccc(Cl)cn2)N2C[C@H](C)N(c3cc(=O)n(C)c4ccc(C#N)nc34)C[C@H]2C)cc1` (single isomer, unassigned) [Example 199], the IC50 on human DGKα and at human DGKζ was 100 nM each time. The EC50 was 61 nM with naïve human CD8 T cells (Homo sapiens, T-cell, 20 h) and 250 nM with Human venous whole blood.
In the case of `Cc1ccc(C(c2ccc(Cl)cn2)N2C[C@H](C)N(c3cc(=O)n(C)c4ccc(C#N)nc34)C[C@H]2C)cc1` (single isomer, unassigned) [Example 200], the figures for the IC50 on human DGKα and on human DGKζ were 61 nM and 200 nM, respectively. The values for the EC50 with naïve human CD8 T cells and with Human venous whole blood were 40 nM and 540 nM, respectively.
As to `C[C@@H]1CN(c2cc(=O)n(C)c3ccc(C#N)nc23)[C@@H](C)CN1C(c1ccc(Cl)cc1)c1ccc(Cl)cn1` (single isomer, unassigned) [Example 201], the IC50 at human DGKα turned out to be 450 nM; at human DGKζ, 790 nM. The EC50 is 31 nM in the assay on naïve human CD8 T cells and 500 nM in the assay with Human venous whole blood (Homo sapiens, 24 h).
Take `C[C@@H]1CN(c2cc(=O)n(C)c3ccc(C#N)nc23)[C@@H](C)CN1C(c1ccc(Cl)cc1)c1ccc(Cl)cn1` (single isomer, unassigned) [Example 202]: the IC50 on human DGKα was determined as 110 nM; at human DGKζ it was 490 nM. Besides, the EC50 in the assay on naïve human CD8 T cells was found to be 8.3 nM; in the assay on Human venous whole blood it was 380 nM.
In the case of `Cc1cccc(C(c2ccc(F)cc2)N2C[C@H](C)N(c3cc(=O)n(C)c4ccc(C#N)nc34)C[C@H]2C)n1` (single isomer, unassigned) [Example 203], the IC50 on human DGKα worked out at 190 nM; at human DGKζ, 29 nM. For the same compound, the EC50 came to 32 nM in the assay with naïve human CD8 T cells and 290 nM in the assay on Human venous whole blood.
For `Cc1cccc(C(c2ccc(F)cc2)N2C[C@H](C)N(c3cc(=O)n(C)c4ccc(C#N)nc34)C[C@H]2C)n1` (single isomer, unassigned) [Example 204], the values for the IC50 at human DGKα and at human DGKζ were 1300 nM and 220 nM, respectively. In addition, the values for the EC50 with naïve human CD8 T cells and in the assay on Human venous whole blood were 12 nM and 620 nM, respectively.
As to `CCOc1ncccc1C(c1ccc(F)cc1)N1C[C@H](C)N(c2cc(=O)n(C)c3ccc(C#N)nc23)C[C@H]1C` (single isomer, unassigned) [Example 205], the IC50 was 37000 nM on human DGKα and 670 nM at human DGKζ. The EC50 in the assay with naïve human CD8 T cells came to 150 nM; in the assay with Human venous whole blood (Homo sapiens, 24 h), 990 nM.
Take `CCOc1ncccc1C(c1ccc(F)cc1)N1C[C@H](C)N(c2cc(=O)n(C)c3ccc(C#N)nc23)C[C@H]1C` (single isomer, unassigned) [Example 206]: the results for the IC50 at human DGKα and on human DGKζ were 24000 nM and 440 nM, respectively. Also, the half-maximal effective concentration (EC50) came out at 39 nM in the assay with naïve human CD8 T cells and 1400 nM in the assay with Human venous whole blood.
As to `CC(C)Oc1ncccc1C(c1ccc(F)cc1)N1C[C@H](C)N(c2cc(=O)n(C)c3ccc(C#N)nc23)C[C@H]1C` (single isomer, unassigned) [Example 207], the IC50 at human DGKα was 71000 nM; on human DGKζ it was 3100 nM. Besides, the EC50 was found to be 430 nM in the assay on naïve human CD8 T cells (Homo sapiens, T-cell, 20 h) and 3500 nM with Human venous whole blood.
`CC(C)Oc1ncccc1C(c1ccc(F)cc1)N1C[C@H](C)N(c2cc(=O)n(C)c3ccc(C#N)nc23)C[C@H]1C` (single isomer, unassigned) [Example 208]: the IC50 at human DGKα was determined as 11000 nM; on human DGKζ it was 680 nM. The figures for the concentration giving a half-maximal response (EC50) in the assay with naïve human CD8 T cells and in the assay on Human venous whole blood were 250 nM and 1000 nM, respectively.
Turning to `COc1ncccc1C(c1ccc(F)cc1)N1C[C@H](C)N(c2cc(=O)n(C)c3ccc(C#N)nc23)C[C@H]1C` (single isomer, unassigned) [Example 209], the IC50 at human DGKα amounted to 15000 nM; at human DGKζ, 320 nM. Further, the EC50 is 170 nM in the assay with naïve human CD8 T cells (Homo sapiens, T-cell, 20 h) and 1500 nM with Human venous whole blood (Homo sapiens, 24 h).
Turning to `C[C@@H]1CN(c2cc(=O)n(C)c3ccc(C#N)nc23)[C@@H](C)CN1C(c1ccc(F)cc1)c1ccc(Cl)cn1` (single isomer, unassigned) [Example 211], the IC50 on human DGKα is 39 nM; on human DGKζ, 150 nM. In addition, the EC50 stood at 29 nM with naïve human CD8 T cells (Homo sapiens, T-cell, 20 h) and 800 nM in the assay on Human venous whole blood (Homo sapiens, 24 h).
In the case of `C[C@@H]1CN(c2cc(=O)n(C)c3ccc(C#N)nc23)[C@@H](C)CN1C(c1ccc(F)cc1)c1ccc(Cl)cn1` (single isomer, unassigned) [Example 212], the results for the IC50 on human DGKα and at human DGKζ were 210 nM and 590 nM, respectively. In addition, the EC50 in the assay with naïve human CD8 T cells was determined as 57 nM; with Human venous whole blood it was 890 nM.
For the compound `Cc1ccc(C(c2ccc(Cl)cc2)N2C[C@H](C)N(c3cc(=O)n(C)c4ccc(C#N)nc34)C[C@H]2C)nc1` (single isomer, unassigned) [Example 213], the IC50 on human DGKα turned out to be 360 nM; on human DGKζ, 790 nM. Further, the EC50 with naïve human CD8 T cells is 1100 nM; with Human venous whole blood (Homo sapiens, 24 h) it was 460 nM.
With `Cc1ccc(C(c2ccc(Cl)cc2)N2C[C@H](C)N(c3cc(=O)n(C)c4ccc(C#N)nc34)C[C@H]2C)nc1` (single isomer, unassigned) [Example 214], the half-inhibitory concentration (IC50) at human DGKα stood at 72 nM; at human DGKζ it was 290 nM. Besides, the EC50 turned out to be 120 nM in the assay with naïve human CD8 T cells and 620 nM in the assay on Human venous whole blood.
With `Cc1ccc(C(c2cccc(F)c2)N2C[C@H](C)N(c3cc(=O)n(C)c4ccc(C#N)nc34)C[C@H]2C)nc1` (single isomer, unassigned) [Example 215], the IC50 on human DGKα was found to be 660 nM; on human DGKζ it was 530 nM. For the same compound, the values for the EC50 in the assay with naïve human CD8 T cells and with Human venous whole blood were 33 nM and 2100 nM, respectively.
With `Cc1ccc(C(c2cccc(F)c2)N2C[C@H](C)N(c3cc(=O)n(C)c4ccc(C#N)nc34)C[C@H]2C)nc1` (single isomer, unassigned) [Example 216], the IC50 came to 180 nM on human DGKα and 210 nM at human DGKζ. The EC50 in the assay on naïve human CD8 T cells was 74 nM; in the assay on Human venous whole blood, 130 nM.
In the case of `C[C@@H]1CN(c2c(Cl)c(=O)n(C)c3ccc(C#N)nc23)[C@@H](C)CN1C(c1ccccc1)c1ccc(F)cc1` (single isomer, unassigned) [Example 217], the values for the IC50 at human DGKα and on human DGKζ were 50000 nM and 140000 nM, respectively. Further, the EC50 with naïve human CD8 T cells (Homo sapiens, T-cell, 20 h) was 7800 nM; in the assay with Human venous whole blood (Homo sapiens, 24 h), 20000 nM.
On to `C[C@@H]1CN(c2c(Cl)c(=O)n(C)c3ccc(C#N)nc23)[C@@H](C)CN1C(c1ccccc1)c1ccc(F)cc1` (single isomer, unassigned) [Example 218], for which the IC50 was 9500 nM on human DGKα and greater than 250000 nM on human DGKζ. The EC50 turned out to be 10000 nM with naïve human CD8 T cells and 20000 nM in the assay with Human venous whole blood.
Consider `C[C@@H]1CN(c2cc(=O)n(C)c3ccc(C#N)nc23)[C@@H](C)CN1C(c1ccccc1)c1ccc(OC(F)(F)F)cc1` (single isomer, unassigned) [Example 221], for which the IC50 on human DGKα was 1200 nM; on human DGKζ, 750 nM. Further, the EC50 is 42 nM in the assay with naïve human CD8 T cells (Homo sapiens, T-cell, 20 h) and 3000 nM in the assay with Human venous whole blood.
As for `C[C@@H]1CN(c2cc(=O)n(C)c3ccc(C#N)nc23)[C@@H](C)CN1C(c1ccccc1)c1ccc(OC(F)(F)F)cc1` (single isomer, unassigned) [Example 222], the results for the IC50 on human DGKα and at human DGKζ were 290 nM and 710 nM, respectively. In addition, the EC50 was 46 nM in the assay on naïve human CD8 T cells and 680 nM in the assay on Human venous whole blood.
`Cc1cccc(C(c2ccc(F)cc2)N2C[C@H](C)N(c3cc(=O)n(C)c4ccc(C#N)nc34)C[C@H]2C)c1` (single isomer, unassigned) [Example 223]: the IC50 at human DGKα was found to be 280 nM; at human DGKζ, 34 nM. Further, the EC50 amounted to 29 nM with naïve human CD8 T cells (Homo sapiens, T-cell, 20 h) and 870 nM with Human venous whole blood (Homo sapiens, 24 h).
